According to the supplement of paper PMC6045584:
± gives the standard deviation of the averaged measurements.

What was measured:
DOXORUBICIN [1] = compound: T1, COc1cccc2c1C(=O)c1c(O)c3c(c(O)c1C2=O)C[C@@](O)(C(=O)CO)C[C@@H]3O[C@H]1C[C@H](N)[C@H](O)[C@H](C)O1 [DOXORUBICIN]; assay: surviving fraction relative to DMSO-only wells; higher = less growth inhibition; conditions: exposure time: 5 days
In short: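 Surviving fraction was calculated by normalising CellTiter-Glo luminescence to the median of DMSO-only wells. Tumour cell lines in log phase were seeded in 384-well plates at 250–500 cells per well, and 24 hours later were exposed continuously for five days to inhibitors at 0.5, 1, 5, 10, 50, 100, 500 and 1000 nM.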

DOXORUBICIN [2] = compound: T1, DOXORUBICIN; assay: area under dose-response curve of surviving fraction (unscaled, Aref=0) (surviving fraction x log10(nM)); higher = more resistant; conditions: exposure time: 5 days; dose range 0.5-1000 nM
In short: (§1)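 Three screens per tumour cell line were run in 384-well plates at eight inhibitor concentrations from 0.5 to 1000 nM over five days. Surviving fractions, from CellTiter-Glo luminescence normalised to DMSO-only wells, were fitted with 3-parameter logistic curves in the drc R package. The reported area under the curve is the unscaled activity area. It spans log10 dose, and Aref is 0.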

FLUOROURACIL = compound: O=c1[nH]cc(F)c(=O)[nH]1 [FLUOROURACIL]; assay: as above; conditions: exposure time: 5 days; dose range 0.5-1000 nM
In short: as §1

[3] = compound: CCN(CC)CCCCNc1ncc2cc(-c3cc(OC)cc(OC)c3)c(NC(=O)NC(C)(C)C)nc2n1; assay: as above; conditions: exposure time: 5 days; dose range 0.5-1000 nM
In short: as §1

LAPATINIB = compound: CS(=O)(=O)CCNCc1ccc(-c2ccc3ncnc(Nc4ccc(OCc5cccc(F)c5)c(Cl)c4)c3c2)o1 [LAPATINIB]; assay: as above; conditions: exposure time: 5 days; dose range 0.5-1000 nM
In short: as §1

ABT-737 = compound: CN(C)CC[C@H](CSc1ccccc1)Nc1ccc(S(=O)(=O)NC(=O)c2ccc(N3CCN(Cc4ccccc4-c4ccc(Cl)cc4)CC3)cc2)cc1[N+](=O)[O-] [ABT-737]; assay: as above; conditions: exposure time: 5 days; dose range 0.5-1000 nM
In short: as §1

RESVERATROL = compound: Oc1ccc(/C=C/c2cc(O)cc(O)c2)cc1 [RESVERATROL]; assay: as above; conditions: exposure time: 5 days; dose range 0.5-1000 nM
In short: as §1

FLAVOPIRIDOL = compound: CN1CC[C@H](c2c(O)cc(O)c3c(=O)cc(-c4ccccc4Cl)oc23)[C@H](O)C1 [FLAVOPIRIDOL]; assay: as above; conditions: exposure time: 5 days; dose range 0.5-1000 nM
In short: as §1

DECITABINE = compound: Nc1ncn([C@H]2C[C@H](O)[C@@H](CO)O2)c(=O)n1 [DECITABINE]; assay: as above; conditions: exposure time: 5 days; dose range 0.5-1000 nM
In short: as §1

SALINOMYCIN = compound: CC[C@@H](C(=O)[C@@H](C)[C@@H](O)[C@H](C)[C@@H]1O[C@@H]([C@@H](CC)C(=O)O)CC[C@@H]1C)[C@H]1O[C@]2(C=C[C@@H](O)[C@]3(CC[C@@](C)([C@H]4CC[C@](O)(CC)[C@H](C)O4)O3)O2)[C@H](C)C[C@@H]1C [SALINOMYCIN]; assay: as above; conditions: exposure time: 5 days; dose range 0.5-1000 nM
In short: as §1

2-METHOXYESTRADIOL = compound: COc1cc2c(cc1O)CC[C@@H]1[C@@H]2CC[C@]2(C)[C@@H](O)CC[C@@H]12 [2-METHOXYESTRADIOL]; assay: as above; conditions: exposure time: 5 days; dose range 0.5-1000 nM
In short: as §1

VISMODEGIB = compound: CS(=O)(=O)c1ccc(C(=O)Nc2ccc(Cl)c(-c3ccccn3)c2)c(Cl)c1 [VISMODEGIB]; assay: as above; conditions: exposure time: 5 days; dose range 0.5-1000 nM
In short: as §1

17-AAG = compound: C=CCNC1=C2C[C@@H](C)C[C@H](OC)[C@H](O)[C@@H](C)/C=C(\C)[C@H](OC(N)=O)[C@@H](OC)/C=C\C=C(/C)C(=O)NC(=CC1=O)C2=O [17-AAG]; assay: as above; conditions: exposure time: 5 days; dose range 0.5-1000 nM
In short: as §1

Test System | surviving fraction (DOXORUBICIN [1]; 0.5 nM) | surviving fraction (DOXORUBICIN [1]; 1 nM) | surviving fraction (DOXORUBICIN [1]; 5 nM) | surviving fraction (DOXORUBICIN [1]; 10 nM) | surviving fraction (DOXORUBICIN [1]; 50 nM) | surviving fraction (DOXORUBICIN [1]; 100 nM) | surviving fraction (DOXORUBICIN [1]; 500 nM) | surviving fraction (DOXORUBICIN [1]; 1000 nM) | area under dose-response curve (DOXORUBICIN [2]) | area under dose-response curve (FLUOROURACIL) | area under dose-response curve [3] | area under dose-response curve (LAPATINIB) | area under dose-response curve (ABT-737) | area under dose-response curve (RESVERATROL) | area under dose-response curve (FLAVOPIRIDOL) | area under dose-response curve (DECITABINE) | area under dose-response curve (SALINOMYCIN) | area under dose-response curve (2-METHOXYESTRADIOL) | area under dose-response curve (VISMODEGIB) | area under dose-response curve (17-AAG)
MDAMB231 BREAST | 0.979 ± 0.029 | 0.992 ± 0.037 | 0.946 ± 0.024 | 0.817 ± 0.026 | 0.53 ± 0.014 | 0.474 ± 0.011 | 0.125 ± 0.0043 | 0.0638 ± 0.0041 | 2.1 | 3.13 | 3.28 | 3.27 | 3.28 | 3.26 | 2.26 | 3.17 | 2.97 | 3 | 3.04 | 2.14
MDAMB361 BREAST | 0.794 ± 0.089 | 0.997 ± 0.12 | 0.906 ± 0.013 | 0.856 ± 0.074 | 0.746 ± 0.038 | 0.831 ± 0.1 | 0.387 ± 0.034 | 0.0543 ± 0.013 | 2.58 | 2.28 | 2.94 | 2.68 | 2.84 | 2.99 | 2.59 | 3.03 | 2.72 | 2.61 | 2.31 | 1.34
MDAMB436 BREAST | 0.895 ± 0.077 | 0.905 ± 0.069 | 0.822 ± 0.12 | 0.783 ± 0.026 | 0.484 ± 0.036 | 0.423 ± 0.049 | 0.297 ± 0.016 | 0.269 ± 0.031 | 2.04 | 2.81 | 2.96 | 3.11 | 3.13 | 3.36 | 2.13 | 3.1 | 1.74 | 3.01 | 2.81 | 1.77
MFM223 BREAST | 1.11 ± 0.045 | 1.05 ± 0.032 | 0.975 ± 0.069 | 0.702 ± 0.12 | 0.669 ± 0.082 | 0.221 ± 0.013 | 0.079 ± 0.0053 | 0.052 ± 0.007 | 2 | 2.92 | 2 | 3.48 | 4.23 | 3.94 | 2.3 | 3.65 | 2.35 | 3.08 | 3.12 | 1.07
MG63 BONE | 1.02 ± 0.041 | 1.04 ± 0.053 | 1.04 ± 0.022 | 1.03 ± 0.028 | 0.21 ± 0.014 | 0.16 ± 0.025 | 0.0327 ± 0.0025 | 0.031 ± 0.0017 | 1.9 | 3.26 | 2.88 | 3.5 | 3.59 | 3.52 | 2.39 | 1.88 | 2.67 | 3.27 | 3.19 | 2.62
MHM BONE | 0.992 ± 0.027 | 1.03 ± 0.016 | 1.008 ± 0.009 | 1.005 ± 0.0081 | 0.841 ± 0.029 | 0.792 ± 0.02 | 0.296 ± 0.031 | 0.16 ± 0.019 | 2.66 | 3.46 | 3.05 | 3.38 | 3.61 | 3.41 | 2.77 | 3.4 | 3.24 | 3.26 | 3.42 | 2.77
